What was measured:
[1] = biological target: T1, Full length DGKα (D21-10BG, SignalChem) (Homo sapiens, UniProt P23743); assay: Biochemical DGK IC50 assay (ADP-Glo, lipid micelle substrate), DGKα; settings: 7.5 nM enzyme, 140 μM ATP, 80 μM DAG, 1 hour preincubation, 1 hour reaction, room temperature, read-out: IC50s for DGKα
T1 construct: Full length DGKα (D21-10BG, SignalChem); purchased SignalChem D21-10BG
Procedure: (§1) Enzymatic reactions of DGKζ, DGKα and DGKδ were performed using ADP-Glo assay with lipid micelle substrate. […] Full length DGKα (D21-10BG, SignalChem) and full length DGKδ (D23-10G, SignalChem) were purchased. Lipid micelle was prepared by dissolving DAG (Sigma, 317505-10MG) and PS (Sigma, P7769-100MG) with chloroform which was firtherly removed by rotary evaporation. The obtained residue was resuspended in buffer containing 25 mM HEPES pH 7.0, 0.5 mM EDTA and 160 mM Octyl β-D glucopyranoside by vigorous mixing and ultrasonic (IID, Scientz).
(§2) The inhibition activities testing for the compound disclosed herein were carried out at room temperature in assay buffer containing 50 mM HEPES, 10 mM MgCl2, 0.01% BSA, 0.1 mM Na3VO4, 0.005% Tween-20 and 0.01 mM CaCl2. Compounds in DMSO were dispensed into wells of a black 384 well plate (Corning 4514) using D300e digital dispenser (Tecan). The ranges of compounds final concentration were 1.55˜10000 nM or 23.3˜150000 nM. 3 μL 2× enzyme solution was added to wells. […] After 1 hour reaction, 5 μL ADP-Glo reagent (Promga V9101) was added and incubated for 40 minutes. 10 μL Kinase Detection reagent was added and incubated for 30 minutes. Luminescence was measured on a microplate reader (PHERAstar FSX, BMG labtech). The IC50s are calculated based on inhibition of enzyme activity in the presence of increasing concentrations of compounds.

[2] = biological target: T2, Full length DGKζ (in-house protein M1-V929) (Homo sapiens, UniProt Q13574); assay: Biochemical DGK IC50 assay (ADP-Glo, lipid micelle substrate), DGKζ; settings: 0.5 nM enzyme, 140 μM ATP, 80 μM DAG, 1 hour preincubation, 1 hour reaction, room temperature, read-out: IC50s for DGKζ
T2 construct: His (N); TEV cleavage site (N); made in house; host or cells: Sf9 insect cells (baculovirus, Bac-to-Bac)
Procedure: as §1, §2
Human His-TEV-DGK-zeta-pFastBac1 and human baculovirus samples was generated using the Bac-to-Bac baculovirus expression system (Invitrogen) according to the manufacturer's protocol. The DNA used for expression of DGK-zeta, have SEQ ID Nos: 1. Baculovirus amplification was achieved using infected SF9 cells at 1:2000 virus/cells ratios, and grown for 96 hours at 27° C. post-transfected.
The expression scaled up for each protein was carried out in the […] from CORNING. 4 L of 3×10^6 cells/mL Sf9 cells (Expression System, Invitrogen) grown in SF900™ II SFM insect medium (Expression System) was infected with virus stock at 1:200 virus/cells ratio, and grown for 48 hours at 27° C. post-transfection. The infected cell culture was harvested by centrifugation at 6000 rpm for 15 min 4° C. in a SORVALL LYNX6000 centrifuge. The cell pellets were stored at −80° C.
Full length human DGKζ produced as described above, was purified from Sf9 baculovirus-infected insect cell paste. The cells were lysed using sonication method, and the lysates were clarified by centrifugation.

T2 sequence (Q13574 1-929 isoform Q13574-4): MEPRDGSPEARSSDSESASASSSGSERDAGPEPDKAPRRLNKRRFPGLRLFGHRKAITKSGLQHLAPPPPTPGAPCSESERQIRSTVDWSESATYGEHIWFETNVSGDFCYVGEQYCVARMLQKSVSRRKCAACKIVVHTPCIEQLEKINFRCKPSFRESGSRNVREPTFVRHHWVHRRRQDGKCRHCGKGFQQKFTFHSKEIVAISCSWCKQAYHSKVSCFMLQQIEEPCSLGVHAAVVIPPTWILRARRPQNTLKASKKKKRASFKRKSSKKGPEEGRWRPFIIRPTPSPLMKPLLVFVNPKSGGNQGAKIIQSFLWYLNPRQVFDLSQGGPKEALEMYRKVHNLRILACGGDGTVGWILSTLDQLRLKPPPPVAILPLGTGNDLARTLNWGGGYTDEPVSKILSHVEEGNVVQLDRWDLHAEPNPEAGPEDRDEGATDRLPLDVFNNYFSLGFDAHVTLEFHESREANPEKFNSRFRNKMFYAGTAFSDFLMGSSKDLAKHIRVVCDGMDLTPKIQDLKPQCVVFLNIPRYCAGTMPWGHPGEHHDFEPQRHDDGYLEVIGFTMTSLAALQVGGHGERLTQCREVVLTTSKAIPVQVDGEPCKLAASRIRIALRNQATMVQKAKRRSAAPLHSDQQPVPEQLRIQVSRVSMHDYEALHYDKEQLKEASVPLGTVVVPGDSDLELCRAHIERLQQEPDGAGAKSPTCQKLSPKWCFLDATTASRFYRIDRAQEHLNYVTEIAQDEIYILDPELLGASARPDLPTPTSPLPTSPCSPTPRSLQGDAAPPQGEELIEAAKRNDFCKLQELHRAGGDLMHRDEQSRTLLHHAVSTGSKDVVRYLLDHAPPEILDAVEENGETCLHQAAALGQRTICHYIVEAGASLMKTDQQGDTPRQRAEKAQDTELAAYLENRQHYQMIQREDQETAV
T1 sequence (P23743 whole entry): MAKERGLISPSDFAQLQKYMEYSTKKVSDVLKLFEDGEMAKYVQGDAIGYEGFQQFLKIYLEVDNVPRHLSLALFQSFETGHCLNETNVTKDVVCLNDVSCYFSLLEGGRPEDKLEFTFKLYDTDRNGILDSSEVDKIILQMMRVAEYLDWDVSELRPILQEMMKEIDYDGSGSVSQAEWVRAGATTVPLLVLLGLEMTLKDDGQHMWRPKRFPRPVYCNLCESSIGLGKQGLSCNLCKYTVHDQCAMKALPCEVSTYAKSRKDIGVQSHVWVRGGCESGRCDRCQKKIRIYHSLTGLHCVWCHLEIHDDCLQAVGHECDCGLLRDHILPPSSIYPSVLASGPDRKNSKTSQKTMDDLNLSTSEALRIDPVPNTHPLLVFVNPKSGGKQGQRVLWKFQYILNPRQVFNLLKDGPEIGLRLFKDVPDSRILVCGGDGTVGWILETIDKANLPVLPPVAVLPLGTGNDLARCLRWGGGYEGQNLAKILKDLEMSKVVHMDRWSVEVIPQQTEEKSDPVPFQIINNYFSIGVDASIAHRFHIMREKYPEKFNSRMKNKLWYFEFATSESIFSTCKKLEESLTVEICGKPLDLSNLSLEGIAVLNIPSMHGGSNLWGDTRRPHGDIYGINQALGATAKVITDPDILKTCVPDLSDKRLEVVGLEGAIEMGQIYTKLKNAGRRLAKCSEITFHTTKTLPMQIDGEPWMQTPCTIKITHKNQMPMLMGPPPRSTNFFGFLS

Row | IC50 [1] [nM] | IC50 [2] [nM] | SMILES
1 | 682 | 166 | CC[C@@H]1CN(c2c(C#N)c(=O)n(C)n3cc(CC#N)nc23)[C@@H](C)CN1C(C)c1ccc(C2CC2)nc1 (single isomer, unassigned) [Compound A74a]
2 | 1430 | 1550 | CC[C@@H]1CN(c2c(C#N)c(=O)n(C)n3cc(CC#N)nc23)[C@@H](C)CN1C(C)c1ccc(C2CC2)nc1 (single isomer, unassigned) [Compound A74b]
3 | 420 | 276 | CC[C@H]1CN(C(C)c2ccc(C3CC3)nc2)[C@H](CC)CN1c1c(C#N)c(=O)n(C)n2cc(CC#N)nc12 (single isomer, unassigned) [Compound A75a]
4 | 1300 | 1050 | CC[C@H]1CN(C(C)c2ccc(C3CC3)nc2)[C@H](CC)CN1c1c(C#N)c(=O)n(C)n2cc(CC#N)nc12 (single isomer, unassigned) [Compound A75b]
5 | 102 | 255 | CCC(c1ccc(C(F)(F)F)cc1)N1C[C@H](CC)N(c2cc(=O)n(C)n3cc(CC#N)nc23)C[C@H]1CC (single isomer, unassigned) [Compound A77a]
6 | 454 | 1940 | CCC(c1ccc(C(F)(F)F)cc1)N1C[C@H](CC)N(c2cc(=O)n(C)n3cc(CC#N)nc23)C[C@H]1CC (single isomer, unassigned) [Compound A77b]
7 | 26 | 15 | CC[C@H]1CN(C(C)c2ccc3nc(C)sc3n2)[C@H](CC)CN1c1c(F)c(=O)n(C)n2cc(CC#N)nc12 (single isomer, unassigned) [Compound A82a]
8 | 233 | 1050 | CC[C@H]1CN(C(C)c2ccc3nc(C)sc3n2)[C@H](CC)CN1c1c(F)c(=O)n(C)n2cc(CC#N)nc12 (single isomer, unassigned) [Compound A82b]
9 | 169 | 52 | CC[C@@H]1CN(c2cc(=O)n(C)n3cc(CC#N)nc23)[C@@H](C)CN1C(C)c1ccc2nc(C)sc2n1 (single isomer, unassigned) [Compound A84a]
10 | 3310 | 5090 | CC[C@@H]1CN(c2cc(=O)n(C)n3cc(CC#N)nc23)[C@@H](C)CN1C(C)c1ccc2nc(C)sc2n1 (single isomer, unassigned) [Compound A84b]
11 | 171 | 73 | CCC(c1ccc(C2CC2)nc1)N1C[C@H](CC)N(c2cc(=O)n(C)n3cc(CC#N)nc23)C[C@H]1CC (single isomer, unassigned) [Compound A89a]
12 | 1520 | 1010 | CCC(c1ccc(C2CC2)nc1)N1C[C@H](CC)N(c2cc(=O)n(C)n3cc(CC#N)nc23)C[C@H]1CC (single isomer, unassigned) [Compound A89b]
13 | 121 | 25 | CC[C@H]1CN(C(C)c2ccc(C(C)(F)F)nc2)[C@H](CC)CN1c1cc(=O)n(C)n2cc(CC#N)nc12 (single isomer, unassigned) [Compound A90a]
14 | 386 | 802 | CC[C@H]1CN(C(C)c2ccc(C(C)(F)F)nc2)[C@H](CC)CN1c1cc(=O)n(C)n2cc(CC#N)nc12 (single isomer, unassigned) [Compound A90b]
15 | 155 | 73 | CC[C@H]1CN(C(C)c2ccc(C(F)(F)F)cc2)[C@H](CC)CN1c1cc(=O)n(C)n2cc(CC#N)nc12 (single isomer, unassigned) [Compound A91a]
16 | 319 | 1430 | CC[C@H]1CN(C(C)c2ccc(C(F)(F)F)cc2)[C@H](CC)CN1c1cc(=O)n(C)n2cc(CC#N)nc12 (single isomer, unassigned) [Compound A91b]
17 | 87 | 52 | CC[C@H]1CN(C(C)c2ccc(C(F)(F)F)cc2F)[C@H](CC)CN1c1cc(=O)n(C)n2cc(CC#N)nc12 (single isomer, unassigned) [Compound A92a]

Row | IC50 [1] [nM] | IC50 [2] [nM] | SMILES
18 | 803 | 1610 | CC[C@H]1CN(C(C)c2ccc(C(F)(F)F)cc2F)[C@H](CC)CN1c1cc(=O)n(C)n2cc(CC#N)nc12 (single isomer, unassigned) [Compound A92b]
19 | 108 | 24 | [2H]C([2H])([2H])n1c(=O)cc(N2C[C@@H](CC)N(C(C)c3ccc4nc(C)sc4c3)C[C@@H]2CC)c2nc(CC#N)cn21 (single isomer, unassigned) [Compound A94a]
20 | 3790 | 1150 | [2H]C([2H])([2H])n1c(=O)cc(N2C[C@@H](CC)N(C(C)c3ccc4nc(C)sc4c3)C[C@@H]2CC)c2nc(CC#N)cn21 (single isomer, unassigned) [Compound A94b]
21 | 101 | 27 | [2H]C([2H])([2H])C(c1ccc2nc(C)sc2c1)N1C[C@H](CC)N(c2cc(=O)n(C([2H])([2H])[2H])n3cc(CC#N)nc23)C[C@H]1CC (single isomer, unassigned) [Compound A95a]
22 | 1530 | 1020 | [2H]C([2H])([2H])C(c1ccc2nc(C)sc2c1)N1C[C@H](CC)N(c2cc(=O)n(C([2H])([2H])[2H])n3cc(CC#N)nc23)C[C@H]1CC (single isomer, unassigned) [Compound A95b]
23 | 54 | 33 | [2H]C([2H])([2H])c1nc2ccc(C(C)N3C[C@H](CC)N(c4cc(=O)n(C)n5cc(CC#N)nc45)C[C@H]3CC)cc2s1 (single isomer, unassigned) [Compound A96a]
24 | 2080 | 861 | [2H]C([2H])([2H])c1nc2ccc(C(C)N3C[C@H](CC)N(c4cc(=O)n(C)n5cc(CC#N)nc45)C[C@H]3CC)cc2s1 (single isomer, unassigned) [Compound A96b]
25 | 79 | 24 | [2H]C([2H])([2H])c1nc2ccc(C(C)N3C[C@H](CC)N(c4cc(=O)n(C([2H])([2H])[2H])n5cc(CC#N)nc45)C[C@H]3CC)cc2s1 (single isomer, unassigned) [Compound A97a]
26 | 1160 | 1150 | [2H]C([2H])([2H])c1nc2ccc(C(C)N3C[C@H](CC)N(c4cc(=O)n(C([2H])([2H])[2H])n5cc(CC#N)nc45)C[C@H]3CC)cc2s1 (single isomer, unassigned) [Compound A97b]
27 | 712 | 2940 | CCC(c1ccc2nc(C)sc2n1)N1C[C@H](CC)N(c2cc(=O)n(C)n3cc(CC#N)nc23)C[C@H]1C (single isomer, unassigned) [Compound A98a]
28 | 39 | 45 | CCC(c1ccc2nc(C)sc2n1)N1C[C@H](CC)N(c2cc(=O)n(C)n3cc(CC#N)nc23)C[C@H]1C (single isomer, unassigned) [Compound A98b]
29 | 196 | 132 | CCC(c1ccc2nc(C)sc2n1)N1C[C@H](CC)N(c2cc(=O)n(C)n3cc(CC#N)nc23)C[C@H]1CC (single isomer, unassigned) [Compound A99a]
30 | 21 | 11 | CCC(c1ccc2nc(C)sc2n1)N1C[C@H](CC)N(c2cc(=O)n(C)n3cc(CC#N)nc23)C[C@H]1CC (single isomer, unassigned) [Compound A99b]
31 | 297 | 19 | CCc1nc2ccc(C(C)N3C[C@H](CC)N(c4cc(=O)n(C)n5cc(CC#N)nc45)C[C@H]3CC)cc2s1 (single isomer, unassigned) [Compound A100a]
32 | 1060 | 911 | CCc1nc2ccc(C(C)N3C[C@H](CC)N(c4cc(=O)n(C)n5cc(CC#N)nc45)C[C@H]3CC)cc2s1 (single isomer, unassigned) [Compound A100b]
33 | 851 | 29 | CCc1nc2ccc(C(C)N3C[C@H](C)N(c4cc(=O)n(C)n5cc(CC#N)nc45)C[C@H]3CC)cc2s1 (single isomer, unassigned) [Compound A101a]
34 | 2360 | 1110 | CCc1nc2ccc(C(C)N3C[C@H](C)N(c4cc(=O)n(C)n5cc(CC#N)nc45)C[C@H]3CC)cc2s1 (single isomer, unassigned) [Compound A101b]

Reference: patent publication US20240327417A1, “HETEROCYCLIC COMPOUNDS” (BeiGene Switzerland GmbH, priority 2021, published 2024)
